Results on one compound are retold here after patent US10857119B2, “Composition containing monoacetyldiacylglycerol compound as active ingredient for inhibiting blood cancer or metastasis” (ENZYCHEM LIFESCIENCES CORPORATION, priority 2013, dated 2020).

The conditions of data set [1]: GLP toxicity test; cited from earlier work.
The next data set relates to rat IL-4. Put plainly: IL-4 secretion by ELISA in RBL-2H3 cells. It counts as cell-based. To be noted: 10 μg/Ml EC-18. The method, then:
The cells were treated with 0.1 μg/Ml to 10 μg/Ml EC-18 for 1 hour and antigen was processed. After the incubation for 18 hours at 37° C., the cell was removed to obtain a supernatant. The quantification of rat IL-4 which was present in the cell culture medium of RBL-2H3 cells was made by carrying out enzyme-linked immunosorbent assay (ELISA) according to the protocol indicated by the manufacturer using commercially purchasable monoclonal antibody (mAb) (BD Biosciences).

As a reminder, the inhibition is the share of the control response that was lost under treatment. The low end stands for a response near the control, the high end for a response far below the control.

For `CCCCC/C=C\C/C=C\CCCCCCCC(=O)OC(COC(C)=O)COC(=O)CCCCCCCCCCCCCCC` (centres unmarked) [EC-18, 1-palmitoyl-2-linoleoyl-3-acetylglycerol], the toxicity result in data set [1] is on record as “no-toxicity”. Also, in the data set on rat IL-4, the inhibition at 10 µg/mL was at least 60%.
